Values of other authors as cited in patent publication US20090069345A1, “Pharmaceutically Stable Compound Consisting of Timolol, Dorzolamide and Brimonidine” (priority 2007, published 2009).

Tests used:
eye of a rabbit = settings: concentrations above those normally used in formulations
[1] = intravenous injection, first 3 hours

Row | dose excreted in urine [1] | Molecule | toxicity to the eye (eye of a rabbit)
1 |  | Benzalkonium chloride | damaging
2 | about 80% | OC[C@@H](O)[C@@H](O)[C@H](O)[C@H](O)CO [Mannitol] | 
